Data from BindingDB's records for doi:10.1016/j.bmcl.2008.12.083 (Merck Research Laboratories, 2009).
pIC50: −log10 of the molar value.

Legend:
Histone deacetylase 3 = Histone deacetylase 3 (Homo sapiens, UniProt O15379); experiment: HDAC Activity Assay; conditions: 25 °C
Experimental: (§1) The Fluor-de-Lys HDAC activity assay kit (Biomol) was used. Purified recombinant HDAC enzyme was incubated with Fluor-de-Lys substrate in the presence of test compounds. Fluor-de-Lys Developer was then added, and the mixture was incubated for another 10 min at room temperature. Fluorescence was measured using a fluorescent plate reader, with excitation 360 nm and emission 460 nm.

Histone deacetylase 1 = Histone deacetylase 1 (Homo sapiens, UniProt Q13547); experiment: HDAC Activity Assay; conditions: pH 8; 37 °C
Sequence of Histone deacetylase 1 (Q13547 whole entry): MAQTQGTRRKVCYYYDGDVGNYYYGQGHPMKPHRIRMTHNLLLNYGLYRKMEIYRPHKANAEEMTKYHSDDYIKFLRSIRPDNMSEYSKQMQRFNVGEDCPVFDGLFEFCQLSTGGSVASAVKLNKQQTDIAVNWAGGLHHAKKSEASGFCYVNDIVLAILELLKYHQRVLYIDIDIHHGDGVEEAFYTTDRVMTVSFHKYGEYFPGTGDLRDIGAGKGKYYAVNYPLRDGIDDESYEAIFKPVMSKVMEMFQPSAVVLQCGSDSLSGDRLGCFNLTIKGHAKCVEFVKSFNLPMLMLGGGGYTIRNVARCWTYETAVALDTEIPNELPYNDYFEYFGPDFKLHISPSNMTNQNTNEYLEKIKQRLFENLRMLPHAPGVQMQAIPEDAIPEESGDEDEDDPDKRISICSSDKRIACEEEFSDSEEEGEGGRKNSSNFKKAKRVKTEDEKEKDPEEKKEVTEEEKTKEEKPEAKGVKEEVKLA
Experimental: as §1

Sequence of Histone deacetylase 3 (O15379 whole entry): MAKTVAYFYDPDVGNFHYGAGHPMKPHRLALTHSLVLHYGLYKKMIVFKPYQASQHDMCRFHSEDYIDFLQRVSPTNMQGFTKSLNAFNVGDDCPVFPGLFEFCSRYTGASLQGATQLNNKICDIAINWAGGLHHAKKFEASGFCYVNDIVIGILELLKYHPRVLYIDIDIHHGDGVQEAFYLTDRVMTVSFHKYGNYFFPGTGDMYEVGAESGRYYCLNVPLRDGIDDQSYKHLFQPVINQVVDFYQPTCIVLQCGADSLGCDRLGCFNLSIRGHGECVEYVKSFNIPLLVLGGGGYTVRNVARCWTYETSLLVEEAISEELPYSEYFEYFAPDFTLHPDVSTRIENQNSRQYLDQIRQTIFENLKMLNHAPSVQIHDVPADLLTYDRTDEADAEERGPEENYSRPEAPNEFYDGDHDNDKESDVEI

Q: Nc1ccc(-c2ccc(F)cc2)cc1NC(=O)c1ccc(CN2CCC3(CCCN3)CC2)cc1 [N-[2-amino-5-(4-fluorophenyl)phenyl]-4-{1,8-diazaspiro[4.5]decan-8-ylmethyl}benzamide] was tested. Which pIC50 (Histone deacetylase 3) did it give?
A: Its pIC50 is 5.32.

Q: What about the pIC50 (Histone deacetylase 1) of the same compound?
A: Its pIC50 is 7.89.

Q: With Cc1c(CNCc2ccc(C(=O)Nc3cc(-c4ccccc4)ccc3N)cc2)cnn1C [N-(2-amino-5-phenylphenyl)-4-({[(1,5-dimethyl-1H-pyrazol-4-yl)methyl]amino}methyl)benzamide] as the compound, how does the pIC50 (Histone deacetylase 3) read?
A: Its pIC50 is 4.71.
